This note sets out measurements from patent US8329703B2, “Pyrazole compounds” (XTL Biopharmaceuticals Ltd., priority 2005, dated 2012).

One data set deals with Huh-Luc-Neo cells. In words: Cell Titer-Glo Cell Viability Assay. It counts as cell-based, human. Conditions: for Toxicity % Inhibition at 50 μM (2 doses): inhibition of cell viability at 50 μM, conditions identical to HCV Replicon RNA Assay; for Toxicity % Inhibition at 100 μM (1 dose): inhibition of cell viability at 100 μM, conditions identical to HCV Replicon Luciferase Assay (48 h). On the procedure: (§1) Day 2, Reagent Preparation and Luciferase Assay: The Bright-Glo Luciferase Assay Buffer (Promega) is thawed and equilibrated to room temperature prior to use. The lyophilized Bright-Glo Luciferase Assay Substrate is equilibrated to room temperature prior to use. 10 ml of Bright-Glo Luciferase Assay Buffer is transferred to 1 vial of Bright-Glo Luciferase Assay Substrate bottle and mixed by gently with a Vortex. 100 ul of Bright-Glo Luciferase Assay reagent (Bright-Glo Luciferase Assay Buffer+Bright-Glo Luciferase Assay Substrate Mixture) is added to each well. The well contents are mixed for 5 min. on an orbital shaker at room temperature to induce cell lysis and the luminescence is then measured using a luminometer. The data is analyzed and IC50s are determined using GraphPad Prism 4 software. Hits validated in the Replicon Luciferase assay have IC50s<8.0 μM and show <30% inhibition of Cell Viability at a compound concentration of 100 μM (Cell Titer Glow Assay, cell viability assay conditions identical to HCV Replicon Luciferase Assay conditions).
(§2) Day 3, Quantitative PCR Based Measurement of HCV RNA (Taqman Assay): Quantitative PCR analysis to measure HCV RNA expression from cDNA synthesized on Day 2 is performed using the ABI 9700 HT Sequence Detection System (Applied Biosystems) as previously described (Lohman et al, Science 285, 110-113, 1999). The data is analyzed and IC50s are determined using GraphPad Prism 4 software. Hits validated in the Replicon RNA Assay have IC50s<8.0 μM and show <30% inhibition of Cell Viability at a compound concentration of 50 μM (Cell Titer Glow Assay, cell viability assay conditions identical to HCV Replicon RNA Assay conditions).
Day 0, Cell Seeding and Compound Treatment: Huh-Luc-Neo Cells are seeded at 25,000/well in an opaque-walled 96 plate with Growth Medium (DMEM phenol red free+PS+2 mM glutamine; 100 ul/well).
Day 2, Reagent Preparation and Assay: The CellTiter-Glo Buffer is thawed and equilibrated to room temperature prior to use. The lyophilized CellTiter-Glo Substrate is equilibrated to room temperature prior to use. 10 ml of CellTiter-Glo Buffer is transferred to 1 vial of CellTiter-Glo Substrate and mixed by gently with a Vortex. 100 μl of CellTiter-Glo Assay reagent (CellTiter-Glo Buffer+CellTiter-Glo Substrate Mixture) is added to each well. The well contents are mixed for 5 min. on an orbital shaker at room temperature to induce cell lysis and the luminescence is then measured using a luminometer.

Data set [1] relates to HCV Replicon (HCV IRES driven luciferase reporter) in Huh-Luc-Neo cells. In words: HCV Replicon Luciferase Assay. It counts as cell-based. Conditions: Hepatitis C virus, 48 h, no unit printed in table (b301 gives IC50s in μM). On the procedure:
(§3) The identification of inhibitors of HCV replication and/or proliferation has been facilitated by the development of a cell based system to study HCV replication and assay for HCV inhibitors. Inhibition of HCV replication may be performed using the HCV Replicon Assay developed in the laboratories of Bartenschlager (Lohman et al, Science 285, 110-113, 1999) and Rice (Blight et al, Science 290, 1972-1974, 2000). The assay is performed using the Huh-Luc-Neo cell line (Lohman et al, Science 285, 110-113, 1999). Huh-Luc-Neo cells are a human hepatoma cell line (Huh-7) stably expressing a bi-cistronic subgenomic replicon containing the HCV IRES in which the […] of HCV had been deleted and replaced by a construct containing sequences coding for the firefly luciferase reporter gene, the neomycin selectable marker and the EMCV IRES to direct expression of a truncated HCV genome expressing the […] NS3, NS4A, NS4B, NS5A, and NS5B. HCV targets through which inhibitors could act to inhibit replication include the NS3 protease, the helicase/ATPase, NS5A, the NS5B-RNA dependent RNA polymerase, and the HCV IRES.
(§4) Expression of HCV IRES driven luciferase reporter activity and HCV RNA is measured to obtain indirect and direct measures of replication of HCV RNA respectively. Inhibitors of HCV replication and/or proliferation are determined by initially identifying molecules that inhibit expression of the HCV IRES driven luciferase reporter in this HCV Replicon Luciferase Assay. Cell viability assays and control cell based luciferase assays are then run on hits identified in the HCV Replicon Luciferase Assay to eliminate cytoxic compounds and non-specific compounds which act by inhibiting the luciferase enzyme.
Day 0, Cell Seeding and Compound Treatment: Huh-Luc-Neo Cells are seeded at 25,000/well in an opaque-walled 96 plate with Growth Medium (DMEM phenol red free+PS+2 mM glutamine; 100 μl/well). The compounds to be tested are added to the experimental wells (10 μl/well at 10× assay concentration) and the cells are then incubated (5% CO2, 37° C.) for 48 h.
as §1
(In general: In antiviral work, replicon cells carry a viral genome segment that copies itself.)

For data set [2], the system named is HCV RNA (HCV Replicon) in Huh-Luc-Neo cells. In words: HCV Replicon RNA Assay (Taqman quantitative PCR). Type of data set: cell-based. The note with it: Hepatitis C virus, 48 h, 2 compound treatments over 48 h, no unit printed in table (b307 gives IC50s in μM). As to the method:
as §3, §4
Day 0, Cell Seeding and Compound Treatment: Huh-Luc-Neo Cells are seeded at 25,000/well in an opaque-walled 96 plate with Growth Medium (DMEM phenol red free+PS+2 mM glutamine; 100 μl/well). The compounds to be tested are added to the experimental wells (10 μl/well at 10× assay concentration) and the cells are then incubated (5% CO2, 37° C.).
Day 1, Media Change and Compound Treatment: 24 hours after the initial compound treatment the cell culture media is aspirated from the wells and fresh Growth Medium is added (DMEM phenol red free+PS+2 mM glutamine; 100 μl/well). The compounds to be tested are then added to the appropriate experimental wells (10 μl/well at 10× assay concentration) and the cells are then incubated (5% CO2, 37° C.) for an additional 24 hrs.
Day 2, RNA Isolation and cDNA Synthesis: The cells are washed with 1× Phosphate Buffered Saline (PBS) once.
as §2

[3] abbreviates: read-out: Luciferase IC50, Huh-Luc-Neo cells, 48 h.
The mark [4] stands for this setting: Huh-Luc-Neo cells, read-out: Luciferase IC50.

Where two headings read alike, the source gives them in different places.

The term IC50 denotes the concentration needed to halve the response being measured. For the compound `Cn1cc(C#CC(C)(C)C)c(-c2cc([N+](=O)[O-])ccc2NCC(C)(C)CNc2ccc([N+](=O)[O-])cc2-c2nn(C)cc2C#CC(C)(C)C)n1` [VQ_36660], in the data set with Huh-Luc-Neo cells, the “Toxicity % Inhibition at 50 μM (2 doses)” value worked out at 15.8% and the “Toxicity % Inhibition at 100 μM (1 dose)” value is reported as 15.3%. Also, the IC50 in data set [1] (setting [3]) stood at 10.4 µM. The compound also had an IC50 in data set [2] of 0.59 µM.
`Cn1cc(C#CC(C)(C)C)c(-c2cc([N+](=O)[O-])ccc2NC2CCCCC2)n1` [VQ_36661]: in the data set on Huh-Luc-Neo cells, the “Toxicity % Inhibition at 50 μM (2 doses)” value was 14.4% and the “Toxicity % Inhibition at 100 μM (1 dose)” value came to 9.5%. Also, in data set [1] (setting [4]), the IC50 came to 0.63 µM. In data set [2], this compound returned an IC50 of 0.55 µM.
`Cn1cc(C#CC(C)(C)C)c(-c2cc([N+](=O)[O-])ccc2NCc2c(F)cccc2F)n1` [VQ_36665]: the “Toxicity % Inhibition at 50 μM (2 doses)” value with Huh-Luc-Neo cells is listed as 25.6%. Besides, the “Toxicity % Inhibition at 100 μM (1 dose)” value in the data set with Huh-Luc-Neo cells was found to be 12.8%. Also, the half-inhibitory concentration (IC50) in data set [1] (setting [4]) was 0.03 µM; in data set [2], 0.72 µM.
For the compound `CC(Nc1ccc([N+](=O)[O-])cc1-c1nn(C)cc1C#CC(C)(C)C)c1ccccc1` (stereo not shown) [VQ_36666], the “Toxicity % Inhibition at 50 μM (2 doses)” value in the data set with Huh-Luc-Neo cells was 19.0%. The “Toxicity % Inhibition at 100 μM (1 dose)” value with Huh-Luc-Neo cells is on record as 12.9%. Further, the IC50 in data set [1] (setting [4]) was determined as 0.35 µM; in data set [2], 0.38 µM.
With `Cc1cnc(Nc2ccc([N+](=O)[O-])cc2-c2nn(C)cc2C#CC(C)(C)C)s1` [VQ_36669], in the data set with Huh-Luc-Neo cells, the “Toxicity % Inhibition at 50 μM (2 doses)” value turned out to be 26.7% and the “Toxicity % Inhibition at 100 μM (1 dose)” value was 23.2%. Further, the IC50 in data set [1] (setting [4]) was found to be 0.01 µM. In data set [2], this compound came in with a half-inhibitory concentration (IC50) of 0.9 µM.
With `Cn1cc(C#CC(C)(C)C)c(-c2cc([N+](=O)[O-])ccc2NCCCNc2ccc([N+](=O)[O-])cc2-c2nn(C)cc2C#CC(C)(C)C)n1` [VQ_36673], the “Toxicity % Inhibition at 50 μM (2 doses)” value with Huh-Luc-Neo cells was 19.7%. For the same compound, the “Toxicity % Inhibition at 100 μM (1 dose)” value in the data set with Huh-Luc-Neo cells is reported as 15.9%. In addition, the IC50 in data set [1] (setting [3]) was 2.09 µM; in data set [2], 0.42 µM.
`Cn1cc(-c2ccc(O)c(-c3nn(C)cc3C#CC(C)(C)C)c2)cn1` [VQ_95538]: the “Toxicity % Inhibition at 50 μM (2 doses)” value in the data set on Huh-Luc-Neo cells was 6.1%. Moreover, the “Toxicity % Inhibition at 100 μM (1 dose)” value in the data set on Huh-Luc-Neo cells stood at 24.3%. Further, the half-maximal inhibitory concentration (IC50) in data set [1] (setting [4]) was found to be 9.8 µM; in data set [2], 1.35 µM.
